Results reported in the supplement of paper PMC11061612.

How the values were obtained:
Experiment in all cases: combination Emax (second highest fraction inhibited in the dose matrix, 72 h); higher = more inhibition; extreme values may be limits of the assay
[1] = test system: A4-Fuk (B-Lymphoblastic Leukemia)
How it was run: (§1)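 Bliss excess equals the observed combination effect minus the expected value EA + EB − EA·EB, where EA and EB are the effects of each agent alone. Combination Emax is the second-highest inhibition within the matrix. Inhibition was scaled from CellTiter-Glo 2.0 luminescence, with 0 set by vehicle wells and 1 by blank wells, after 72 hours of two-drug dosing of cells plated in 1536-well plates.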

[2] = test system: CADO-ES1 (Ewing's Sarcoma)
How it was run: as §1

[3] = test system: COLO-668 (Small Cell Lung Carcinoma)
How it was run: as §1

COLO-679 (Melanoma) = test system: COLO-679 (Melanoma)
How it was run: as §1

[4] = test system: Ca-Ski (Cervical Carcinoma)
How it was run: as §1

[5] = test system: DU-145 (Prostate Carcinoma)
How it was run: as §1

[6] = test system: KGN (Other Solid Carcinomas)
How it was run: as §1

[7] = test system: KMRC-1 (Kidney Carcinoma)
How it was run: as §1

[8] = test system: KOPN-8 (B-Lymphoblastic Leukemia)
How it was run: as §1

[9] = test system: MDA-MB-453 (Breast Carcinoma)
How it was run: as §1

[10] = test system: MOLT-4 (T-Lymphoblastic Leukemia)
How it was run: as §1

[11] = test system: Mo-T (Other Blood Carcinomas)
How it was run: as §1

[12] = test system: NCI-H1355 (Lung Adenocarcinoma)
How it was run: as §1

[13] = test system: NCI-H1838 (Lung Adenocarcinoma)
How it was run: as §1

[14] = test system: NCI-H522 (Lung Adenocarcinoma)
How it was run: as §1

[15] = test system: NCI-H650 (Lung Adenocarcinoma)
How it was run: as §1

[16] = test system: OACM5-1 (Esophageal Adenocarcinoma)
How it was run: as §1

[17] = test system: SK-LU-1 (Lung Adenocarcinoma)
How it was run: as §1

[18] = test system: SKN (Other Solid Carcinomas)
How it was run: as §1

[19] = test system: SNU-387 (Hepatocellular Carcinoma)
How it was run: as §1

Row | SMILES | combination Emax [1] | combination Emax [2] | combination Emax [3] | combination Emax (COLO-679 (Melanoma)) | combination Emax [4] | combination Emax [5] | combination Emax [6] | combination Emax [7] | combination Emax [8] | combination Emax [9] | combination Emax [10] | combination Emax [11] | combination Emax [12] | combination Emax [13] | combination Emax [14] | combination Emax [15] | combination Emax [16] | combination Emax [17] | combination Emax [18] | combination Emax [19]
1 | COc1nnc2ccc(N3CCC(c4ccc(OCCN5CCN(C)C(=O)[C@H]5C)cc4)CC3)nn12 [AZD5153] + CCN(CCO)CCCOc1ccc2c(Nc3cc(CC(=O)Nc4cccc(F)c4)[nH]n3)ncnc2c1 [AZD2811] (first compound max 1 µM, 7x7, partner max 1 µM) | 0.893 | 0.248 | 0.264 | 0.485 | 0.591 | 0.265 | 0.691 | 0.316 | 0.996 | 0.677 | 1 | 0.599 | 0.509 | 0.441 | 0.344 | 0.443 | 0.734 | 0.404 | 0.608 | 0.487
2 | COc1nnc2ccc(N3CCC(c4ccc(OCCN5CCN(C)C(=O)[C@H]5C)cc4)CC3)nn12 [AZD5153] + C[C@@H]1COCCN1C2=NC(=NC(=C2)C3(CC3)[S@](=N)(=O)C)C4=C5C=CNC5=NC=C4 [AZD6738] (first compound max 1 µM, 7x7, partner max 10 µM) | 0.882 | 0.88 | 0.917 | 0.718 | 0.794 | 0.447 | 0.822 | 0.456 | 1 | 0.837 | 0.999 | 0.746 | 0.639 | 0.441 | 0.565 | 0.51 | 0.886 | 0.516 | 0.71 | 0.524
3 | COc1nnc2ccc(N3CCC(c4ccc(OCCN5CCN(C)C(=O)[C@H]5C)cc4)CC3)nn12 [AZD5153] + Cc1c2c(nn1C)CSCc1cc(n(C)n1)CSc1cc(c3ccccc3c1)OCCCc1c(C(=O)O)n(C)c3c-2c(Cl)ccc13 [AZD5991] (first compound max 1 µM, 7x7, partner max 1 µM) | 1 | 0.659 | 0.564 | 0.874 | 0.835 | 0.242 | 0.742 | 0.322 | 1 | 0.953 | 0.95 | 0.616 | 0.358 | 0.731 | 0.942 | 0.768 | 0.952 | 0.388 | 0.568 | 0.614
4 | COc1nnc2ccc(N3CCC(c4ccc(OCCN5CCN(C)C(=O)[C@H]5C)cc4)CC3)nn12 [AZD5153] + Cn1cnc2c(F)c(Nc3ccc(Br)cc3Cl)c(C(=O)NOCCO)cc21 [Selumetinib] (first compound max 1 µM, 7x7, partner max 10 µM) | 0.934 | 0.444 | 0.899 | 0.884 | 0.813 | 0.28 | 0.729 | 0.346 | 1 | 0.614 | 0.162 | 0.659 | 0.483 | 0.394 | 0.469 | 0.656 | 0.663 | 0.46 | 0.65 | 0.514
5 | Cc1c2c(nn1C)CSCc1cc(n(C)n1)CSc1cc(c3ccccc3c1)OCCCc1c(C(=O)O)n(C)c3c-2c(Cl)ccc13 [AZD5991] + C1CN(CCC1(C(=O)N[C@@H](CCO)C2=CC=C(C=C2)Cl)N)C3=NC=NC4=C3C=CN4 [Capivasertib] (first compound max 1 µM, 7x7, partner max 3 µM) | 1 | 0.927 | 0.303 | 0.19 | 0.609 | 0.187 | 0.329 | 0.432 | 0.901 | 0.61 | 0.92 | 0.281 | 0.227 | 0.306 | 0.507 | 0.209 | 0.969 | 0.303 | 0.455 | 0.345
6 | Cc1c2c(nn1C)CSCc1cc(n(C)n1)CSc1cc(c3ccccc3c1)OCCCc1c(C(=O)O)n(C)c3c-2c(Cl)ccc13 [AZD5991] + C=CCn1c(=O)c2cnc(Nc3ccc(N4CCN(C)CC4)cc3)nc2n1-c1cccc(C(C)(C)O)n1 [AZD1775] (first compound max 1 µM, partner max 1 µM) | 1 | 0.925 | 0.464 | 0.529 | 0.816 | 0.373 | 0.725 | 0.275 | 0.998 | 0.4 | 1 | 0.562 | 0.57 | 0.835 | 0.516 | 0.748 | 0.928 | 0.575 | 0.436 | 0.581
7 | Cc1c2c(nn1C)CSCc1cc(n(C)n1)CSc1cc(c3ccccc3c1)OCCCc1c(C(=O)O)n(C)c3c-2c(Cl)ccc13 [AZD5991] + CC1(C)CCC(CN2CCN(c3ccc(C(=O)NS(=O)(=O)c4ccc(NCC5CCOCC5)c([N+](=O)[O-])c4)c(Oc4cnc5[nH]ccc5c4)c3)CC2)=C(c2ccc(Cl)cc2)C1 [Venetoclax] (first compound max 1 µM, 7x7, partner max 1 µM) | 1 | 0.911 | 0.686 | 0.388 | 0.682 | 0.149 | 0.263 | 0.289 | 0.936 | 0.346 | 0.857 | 0.196 | 0.188 | 0.306 | 0.443 | 0.329 | 0.917 | 0.258 | 0.177 | 0.454
8 | Cc1c2c(nn1C)CSCc1cc(n(C)n1)CSc1cc(c3ccccc3c1)OCCCc1c(C(=O)O)n(C)c3c-2c(Cl)ccc13 [AZD5991] + CCN(CCO)CCCOc1ccc2c(Nc3cc(CC(=O)Nc4cccc(F)c4)[nH]n3)ncnc2c1 [AZD2811] (first compound max 1 µM, 7x7, partner max 1 µM) | 1 | 0.908 | 0.235 | 0.42 | 0.7 | 0.23 | 0.574 | 0.194 | 0.983 | 0.75 | 0.941 | 0.189 | 0.334 | 0.447 | 0.657 | 0.61 | 0.946 | 0.41 | 0.204 | 0.458
9 | Cc1c2c(nn1C)CSCc1cc(n(C)n1)CSc1cc(c3ccccc3c1)OCCCc1c(C(=O)O)n(C)c3c-2c(Cl)ccc13 [AZD5991] + CN(C)CCCOc1ccc(-c2ccc3ncc4c(c3c2)n(C2CCOCC2)c(=O)n4C)cn1 [AZD0156] (first compound max 1 µM, 7x7, partner max 1 µM) | 1 | 0.946 | 0.222 | 0.243 | 0.303 | 0.192 | 0.425 | 0.197 | 0.963 | 0.298 | 0.304 | 0.229 | 0.263 | 0.464 | 0.387 | 0.272 | 0.928 | 0.3 | 0.278 | 0.376
10 | Cc1c2c(nn1C)CSCc1cc(n(C)n1)CSc1cc(c3ccccc3c1)OCCCc1c(C(=O)O)n(C)c3c-2c(Cl)ccc13 [AZD5991] + C[C@@H]1COCCN1C2=NC(=NC(=C2)C3(CC3)[S@](=N)(=O)C)C4=C5C=CNC5=NC=C4 [AZD6738] (first compound max 1 µM, 7x7, partner max 10 µM) | 1 | 0.989 | 0.63 | 0.674 | 0.717 | 0.621 | 0.772 | 0.549 | 0.998 | 0.886 | 1 | 0.483 | 0.652 | 0.72 | 0.417 | 0.352 | 0.928 | 0.521 | 0.42 | 0.638
11 | Cc1c2c(nn1C)CSCc1cc(n(C)n1)CSc1cc(c3ccccc3c1)OCCCc1c(C(=O)O)n(C)c3c-2c(Cl)ccc13 [AZD5991] + C[C@@H](Nc1cc(F)cc(F)c1)c1cc(C(=O)N(C)C)cc2c(=O)cc(N3CCOCC3)oc12 [AZD8186] (first compound max 1 µM, 7x7, partner max 3 µM) | 1 | 0.918 | 0.205 | 0.332 | 0.556 | 0.179 | 0.443 | 0.639 | 0.915 | 0.355 | 0.526 | 0.319 | 0.227 | 0.472 | 0.452 | 0.22 | 0.94 | 0.384 | 0.532 | 0.41
12 | Cc1c2c(nn1C)CSCc1cc(n(C)n1)CSc1cc(c3ccccc3c1)OCCCc1c(C(=O)O)n(C)c3c-2c(Cl)ccc13 [AZD5991] + Cc1cc2ncnn2cc1Nc1ncc2c(n1)n(C1CCOCC1)c(=O)n2C [AZD7648] (first compound max 1 µM, 7x7, partner max 10 µM) | 1 | 0.893 | 0.187 | 0.259 | 0.331 | 0.23 | 0.563 | 0.203 | 0.936 | 0.381 | 0.429 | 0.262 | 0.393 | 0.259 | 0.362 | 0.203 | 0.923 | 0.399 | 0.305 | 0.393
